Measured values taken from paper PMC4907692, “Engineering vanilloid-sensitivity into the rat TRPV2 channel” (eLife, 2016).
pKd: −log10 of the molar value. Several values for one entry are separate records, joined by “and”; a condition that tells them apart may be missing. Identical values can stand only once.

Experiments:
[1] = target: T1, TRPV1 triple mutant that left S512 intact (Rattus norvegicus, UniProt O35433, E570Q/M547L/T550L); experiment: Two-electrode voltage-clamp in Xenopus oocytes, TRPV1 triple mutant with S512 intact; assay type: cell-based; conditions: 100 nM RTx
T1 construct: expressed in transfected cells; host or cells: Xenopus oocytes (cRNA injection)
From the text: To further investigate the putative vanilloid binding pocket in TRPV1, we inspected the cryo-EM structure of TRPV1, looking for residues that are located nearby to the putative RTx density (Figure 1B; regions/residues highlighted in yellow) and that differ between TRPV1 and TRPV2 channels (Figure 3—figure supplement 1; regions highlighted in magenta). […] To quantify the contribution of each of these residues to TRPV1 channel activation by RTx under our experimental conditions, we mutated each to the corresponding residue in TRPV2. We then expressed each construct in oocytes and used the two electrode voltage-clamp technique to study activation by RTx and by the non-specific TRPV channel activator 2-APB. We recorded time courses for channel activation by each agonist while stepping the membrane potential from −60 to +60 mV every 3 s from a holding potential of 0 mV using an external recording solution containing 100 mM KCl (internal K^+ concentration in a healthy oocyte is 100 mM) (Figure 3A, left). We also recorded current-voltage (I-V) relations by stepping over a wider range of voltages in the absence and presence of activators, or in the presence of ruthenium red (RR), a non-specific inhibitor of TRP channels (Figure 3A, right). […]

TRPV2 F472S/Q530E = target: T2, TRPV2 F472S/Q530E (Rattus norvegicus, UniProt Q9WUD2, F472S/Q530E); experiment: Two-electrode voltage-clamp in Xenopus oocytes, TRPV2 F472S/Q530E; assay type: cell-based; conditions: 100 nM RTx
T2 construct: expressed in transfected cells; host or cells: Xenopus oocytes (cRNA injection)

[2] = target: T3, full-length 1D4-tagged TRPV1 (Rattus norvegicus, UniProt O35433); experiment: 3H-RTx binding to S. cerevisiae membranes containing 1D4-tagged TRPV1; conditions: for Hill slope (nH): membranes
T3 construct: made in house; host or cells: S. cerevisiae BJ5457, YEpHIS vector, PMA1 promoter; isolated membranes
From the text: The polymodal activation of TRPV1 has been widely conceptualized using allosteric models wherein binding of activators (such as vanilloids, protons, DkTx or voltage) are allosterically coupled to opening of the pore ([Brauchi et al., 2004]; [Jara-Oseguera et al., 2016]; [Matta and Ahern, 2007]). The allosteric nature of these interactions has begun to be explored using electrophysiological measurements of channel function ([Jara-Oseguera et al., 2016]; [Yao et al., 2010]), but has thus far not been investigated biochemically. We therefore tested whether binding of DkTx can enhance the affinity of TRPV1 for RTx, which would be predicted by an allosteric model wherein the two activators promote opening by binding more tightly to the open state. For these experiments we used a 1D4-tagged TRPV1 construct where expression in S. cerevisiae was driven by a constitutive promoter and we performed binding assays on yeast membranes where the vanilloid would have free access to the channel protein (see Methods). Under these conditions, we measured a Kd for RTx binding to 1D4-tagged TRPV1 of 0.6 nM under control conditions, about ten fold higher affinity than what we measured in intact cells using GFP-tagged TRPV1. When we measured the concentration-dependence of RTx binding to 1D4-tagged TRPV1 in the presence of DkTx, we observed that the tarantula toxin enhanced the affinity for RTx by about 3-fold (Figure 2A). The effects of DkTx were concentration-dependent (Figure 2B) and were observed independent of whether the binding assay was performed at 37°C (our standard temperature) or at 30°C (Figure 2A).
The full-length TRPV1 and TRPV2 channels with 1D4 affinity tags (TETSQVAPA) on their C-termini were cloned into the YEpHIS vector and expressed in the BJ5457 strain of S. cerevisiae using the strong constitutively active PMA1 promoter, as previously described ([Moiseenkova-Bell et al., 2008]). After 48 hr of expression at 30°C in YPD media, cells were harvested by centrifugation and re-suspended in PBS buffer, supplemented with complete protease inhibitor cocktail (Roche, Indianapolis, IN) and 4-amidinophenylmethanesulfonyl fluoride hydrochloride (APMSF) (Sigma-Aldrich, St. Louis, MO). Cells were broken by passing through an Avestin homogenizer at the pressure of 35 kpsi, cell lysate was cleared by centrifugation at 8,000 g for 15 min and membranes were isolated by ultracentrifugation at 190,000 g for 1 hr. Membrane pellets were re-suspended in PBS buffer supplemented with protease inhibitors and 200 mM sucrose, flash-frozen in liquid nitrogen and stored at -70°C until RTx binding measurements.
S. cerevisiae cells overexpressing TRPV1 constructs to be used in ligand binding assays on intact cells (Figure 1E,F) were grown as for small scale expression trials. 24 hr after protein induction cells were spun down at 4000g, the supernatant was removed and the pellet resuspended in 1x PBS, normalizing OD600 to 75 for each sample, and aliquoted for storage at -80°C. ^3H-RTx binding assays on cells were performed at 37°C as previously described ([Feng et al., 2015]), but where non-specific binding of RTx was measured using cells expressing GFP alone. The binding of RTx to TRPV1 and TRPV2 in membranes (e.g. Figure 2A,B and 5C) was performed at 37°C unless otherwise stated using membranes prepared from large scale protein preparations of S. cerevisiae containing rat TRPV1 and TRPV2 with a 1D4 tag expressed using a constitutive promoter as in [Moiseenkova-Bell et al., 2008]. Data for binding of RTx to membranes was corrected for non-specific binding, determined using either excess non-radioactive ligand or heat inactivation of the protein, as previously described ([Feng et al., 2015]). The TRPV1-activating double-knot toxin (DkTx) was produced recombinantly, folded in vitro and purified as previously described ([Bae et al., 2012]). Yeast membranes were incubated with DkTx solution for 1 hr at 4°C with gentle agitation prior to undertaking RTx binding assays. […]

T3 sequence (O35433 whole entry): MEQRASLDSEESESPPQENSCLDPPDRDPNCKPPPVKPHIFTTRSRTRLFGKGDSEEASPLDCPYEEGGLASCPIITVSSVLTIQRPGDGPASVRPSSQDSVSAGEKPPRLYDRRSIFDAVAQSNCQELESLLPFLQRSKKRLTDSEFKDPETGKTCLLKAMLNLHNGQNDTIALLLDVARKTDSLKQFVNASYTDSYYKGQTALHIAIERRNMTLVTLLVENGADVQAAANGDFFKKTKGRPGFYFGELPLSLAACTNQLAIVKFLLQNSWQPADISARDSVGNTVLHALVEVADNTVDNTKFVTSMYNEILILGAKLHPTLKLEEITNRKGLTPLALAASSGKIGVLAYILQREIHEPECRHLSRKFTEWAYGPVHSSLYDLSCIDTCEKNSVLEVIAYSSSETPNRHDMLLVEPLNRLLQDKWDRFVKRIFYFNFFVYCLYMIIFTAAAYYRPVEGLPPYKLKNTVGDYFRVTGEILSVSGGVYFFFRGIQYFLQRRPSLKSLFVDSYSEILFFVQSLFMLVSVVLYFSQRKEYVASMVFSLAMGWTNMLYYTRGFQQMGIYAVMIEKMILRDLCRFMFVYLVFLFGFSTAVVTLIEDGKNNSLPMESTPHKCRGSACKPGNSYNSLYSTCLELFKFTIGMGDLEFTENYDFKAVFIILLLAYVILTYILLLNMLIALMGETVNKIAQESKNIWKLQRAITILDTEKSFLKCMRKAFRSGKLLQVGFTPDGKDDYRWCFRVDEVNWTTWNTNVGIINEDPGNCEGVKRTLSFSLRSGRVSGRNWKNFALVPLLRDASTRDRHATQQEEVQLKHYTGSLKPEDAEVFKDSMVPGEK
T1 sequence (O35433 whole entry M547L/T550L/E570Q): as the sequence (O35433 whole entry) above, with M547L, T550L, E570Q counted along it
T2 sequence (Q9WUD2 whole entry F472S/Q530E): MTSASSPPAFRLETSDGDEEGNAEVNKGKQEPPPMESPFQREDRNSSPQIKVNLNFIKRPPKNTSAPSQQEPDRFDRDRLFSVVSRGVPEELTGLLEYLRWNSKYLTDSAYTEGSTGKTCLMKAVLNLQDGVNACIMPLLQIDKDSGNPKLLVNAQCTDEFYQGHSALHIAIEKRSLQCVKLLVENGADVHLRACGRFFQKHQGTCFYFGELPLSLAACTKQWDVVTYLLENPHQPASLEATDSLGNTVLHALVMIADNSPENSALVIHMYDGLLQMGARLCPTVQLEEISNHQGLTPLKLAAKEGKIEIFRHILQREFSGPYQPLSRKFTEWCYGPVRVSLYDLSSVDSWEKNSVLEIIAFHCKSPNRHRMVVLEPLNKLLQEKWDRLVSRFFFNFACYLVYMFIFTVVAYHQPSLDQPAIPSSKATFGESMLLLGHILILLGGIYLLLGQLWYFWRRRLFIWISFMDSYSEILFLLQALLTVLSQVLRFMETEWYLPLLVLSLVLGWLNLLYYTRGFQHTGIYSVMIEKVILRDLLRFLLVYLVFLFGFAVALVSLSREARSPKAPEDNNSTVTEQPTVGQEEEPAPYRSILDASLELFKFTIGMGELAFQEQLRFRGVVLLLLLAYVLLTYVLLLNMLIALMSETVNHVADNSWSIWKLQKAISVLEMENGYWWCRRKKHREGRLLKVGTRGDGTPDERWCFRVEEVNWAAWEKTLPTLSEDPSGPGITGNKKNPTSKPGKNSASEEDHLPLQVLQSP

`C=C(C)[C@]12C[C@@H](C)[C@@]34O[C@](Cc5ccccc5)(O[C@@H]1[C@@H]3C=C(COC(=O)Cc1ccc(O)c(OC)c1)C[C@]1(O)C(=O)C(C)=C[C@@H]41)O2` [RTx, resiniferatoxin] was tested, and the “channel activation by RTx” value [1] was “retained sensitivity”, the “channel activation by RTx” value (TRPV2 F472S/Q530E) was “unresponsive” and the pKd ([2]; Kd of 3H-RTx binding (Hill fit)) was 9.28 and 9.10. For the same compound, the “Hill slope (nH)” value ([2]; control (no DkTx), 30°C) was 1.1, the “Hill slope (nH)” value ([2]; control (no DkTx), 37°C) was 1.24 and the “Hill slope (nH)” value ([2]; in the presence of DkTx (0.7 µM), 30°C) was 1. The “Hill slope (nH)” value ([2]; in the presence of DkTx (0.7 µM), 37°C) was 0.92.
